Test results reported in US10179790B2 (THOMAS HELLEDAYS STIFTELSE FOR MEDICINSK FORSKNING, priority 2014, dated 2019).

Columns and labels:
cancer cell = test: Cell viability assay (resazurin); type: cell-based; details: 72 h; 3 days with compound, resazurin fluorescence; cell line not named
In short: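 Cells in DMEM GlutaMAX or line-appropriate medium are exposed to compound for 3 days at 37 °C, 5% CO2. Viability is read as resazurin fluorescence (Ex544/Em590) after 2 h incubation. In the 384-well format, cells are seeded onto 11 pre-dispensed concentrations (final DMSO <1%) and read after 3 h resazurin.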

MTH1 = MTH1 (Homo sapiens, UniProt P36639); test: MTH1 enzymatic assay and IC50 value determination (malachite green, 96- and 384-well format); type: biochemical; details: hydrolysis of dGTP (100 μM), MTH1 6 nM, pyrophosphatase-coupled malachite green, 15 minutes at 22° C.
In short: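 MTH1 (6 nM) hydrolysed dGTP (100 μM) for 15 min at 22 °C in Tris-acetate buffer with Mg2+, DTT, Tween 20 and excess pyrophosphatase, 1% DMSO. Pi detected with malachite green at 630 nm. IC50 from nonlinear 4-parameter fit of 11–12-point dilution series.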

SMILES	IC50 (cancer cell) [nM]	IC50 (MTH1) [nM]
CCNC(=O)Nc1cccc(CCNc2cc(-c3cccc(Cl)c3C)nc(N)n2)c1 [Example 148, 1-[3-[2-[[2-amino-6-(3-chloro-2-methyl-phenyl)pyrimidin-4-yl]amino]ethyl]phenyl]-3-ethyl-urea]	< 500	< 200
Cc1c(Cl)cccc1-c1cc(NCCc2cccc(NC(=O)NC(C)(C)C)c2)nc(N)n1 [Example 149, 1-[3-[2-[[2-amino-6-(3-chloro-2-methyl-phenyl)pyrimidin-4-yl]amino]ethyl]phenyl]-3-tert-butyl-urea]	< 500	< 200
Cc1c(Cl)cccc1-c1cc(NCCc2cccc(NC(=O)N3CCOCC3)c2)nc(N)n1 [Example 150, N-[3-[2-[[2-amino-6-(3-chloro-2-methyl-phenyl)pyrimidin-4-yl]amino]ethyl]phenyl]morpholine-4-carboxamide]	< 500	< 200
Cc1c(Cl)cccc1-c1cc(NCCc2cccc(NC(=O)N(C)C)c2)nc(N)n1 [Example 151, 3-[3-[2-[[2-amino-6-(3-chloro-2-methyl-phenyl)pyrimidin-4-yl]amino]ethyl]phenyl]-1,1-dimethyl-urea]	< 500	< 200
Cc1c(Cl)cccc1-c1cc(NCCc2cccc(NC(=O)N3CCCC3)c2)nc(N)n1 [Example 152, N-[3-[2-[[2-amino-6-(3-chloro-2-methyl-phenyl)pyrimidin-4-yl]amino]ethyl]phenyl]pyrrolidine-1-carboxamide]	< 500	< 200
Cc1c(Cl)cccc1-c1cc(NCCc2cccc(NC(=O)OC(C)C)c2)nc(N)n1 [Example 153, isopropyl N-[3-[2-[[2-amino-6-(3-chloro-2-methyl-phenyl)pyrimidin-4-yl]amino]ethyl]phenyl]carbamate]	< 500	< 200
Cc1c(Cl)cccc1-c1cc(NCCc2cccc(NC(=O)OCC(C)C)c2)nc(N)n1 [Example 154, isobutyl N-[3-[2-[[2-amino-6-(3-chloro-2-methyl-phenyl)pyrimidin-4-yl]amino]ethyl]phenyl]carbamate]	< 500	< 200
Cc1c(Cl)cccc1-c1cc(NCCc2cccc(NC(=O)OCC(C)(C)C)c2)nc(N)n1 [Example 155, 2,2-dimethylpropyl N-[3-[2-[[2-amino-6-(3-chloro-2-methyl-phenyl)pyrimidin-4-yl]amino]ethyl]phenyl]carbamate]	< 500	< 200
Cc1c(Cl)cccc1-c1cc(NCCNc2ncc(C(N)=O)c(C(F)(F)F)n2)nc(N)n1 [Example 159, 2-[2-[[2-amino-6-(3-chloro-2-methyl-phenyl)pyrimidin-4-yl]amino]ethylamino]-4-(trifluoromethyl)pyrimidine-5-carboxamide]	< 500	< 200
Cc1c(Cl)cccc1-c1cc(NCCNc2ccc(S(=O)(=O)C(C)C)cc2)nc(N)n1 [Example 160, 6-(3-chloro-2-methyl-phenyl)-N4-[2-(4-isopropylsulfonylanilino)ethyl]pyrimidine-2,4-diamine]	< 500	< 200
Cc1c(Cl)cccc1-c1cc(NCCNc2ccc([S+](C)[O-])cc2)nc(N)n1 (centres unmarked) [Example 161, 6-(3-chloro-2-methyl-phenyl)-N4-[2-(4-methylsulfinylanilino)ethyl]pyrimidine-2,4-diamine]	< 500	< 200
Cc1c(Cl)cccc1-c1cc(NCCCNc2ccc(S(N)(=O)=O)cc2)nc(N)n1 [Example 163, 4-[3-[[2-amino-6-(3-chloro-2-methyl-phenyl)pyrimidin-4-yl]amino]propylamino]benzenesulfonamide]	< 500	< 200
Cc1c(Cl)cccc1-c1cc(NCC(C)(C)CNc2ccc(S(N)(=O)=O)cc2)nc(N)n1 [Example 164, 4-[[3-[[2-amino-6-(3-chloro-2-methyl-phenyl)pyrimidin-4-yl]amino]-2,2-dimethyl-propyl]amino]benzenesulfonamide]	< 500	< 200
